Consider one compound from patent US12478625B2, “Pharmaceutical compositions and crushable tablets including amorphous solid dispersions of dasatinib and uses” (Handa Therapeutics, LLC, priority 2021, dated 2025).

Holding throughout (settings): promptly after spray drying and vacuum drying
The nature of data set [1]: Water content by coulometric Karl Fischer titration. The data set is classed as physicochemical.
Data set [2] is described as follows: Assay / total impurities by HPLC on stability. The data set is classed as physicochemical. The procedure:
(§1) ASDs stored at 25° C./60% RH and 25° C./protected were additionally evaluated at 9 months and 12 months.
LOD was evaluated using the Computrac Max 4000, in which approximately 0.5 g of material was spread evenly across the sample pan. Assay/impurities of the ASDs were assessed using the instrument parameters, measurement conditions, and gradient profile specified in Table 11.

The nature of data set [3]: Amorphicity / crystallinity by XRD on stability. The data set is classed as physicochemical. The method, then: Diffraction patterns were obtained using a Rigaku MiniFlex 600.
The percent of crystallinity was calculated as follows: % crystallinity=area of crystalline peaks/(area of crystalline peaks+amorphous peaks)
as §1
Amorphicity and glass transition temperature were assessed using the methodology described in Example 1.

Data set [4] is described as follows: Glass transition temperature by modulated DSC.

As to `Cc1nc(Nc2ncc(C(=O)Nc3c(C)cccc3Cl)s2)cc(N2CCN(CCO)CC2)n1` [spray-dried material of 100% dasatinib], in data set [1], the Water content is listed as 0.81%. In addition, the assay value in data set [2] is 97.4%. For the same compound, the XRD crystallinity result in data set [3] is listed as “exhibited crystalline character”. For the same compound, in data set [4], the “glass transition temperature (Tg)” value worked out at 125.61 °C.
